Data reported in patent US4473578A, “β-Lactam antibiotics and their use” (Beecham Group Limited, priority 1979, dated 1984).
Where a name gives a salt, the structure may show the parent alone.

Experiments:
Assay type in all cases: cell-based
[1] = tested on: Klebsiella aerogenes T219; experiment: Antibacterial effectiveness in agar; details: Klebsiella aerogenes, T219
Source text: (§1) b. Antibacterial effectiveness of the compound of […]

[2] = tested on: Bacteroides fragilis 2118; experiment: Antibacterial effectiveness in agar; details: Bacteroides fragilis, 2118
Source text: as §1

Proteus rettgeri R110 = experiment: Antibacterial effectiveness in agar; details: Providencia rettgeri, R110
Source text: as §1

Escherichia coli E8 = experiment: Antibacterial effectiveness in agar; details: Escherichia coli, E8
Source text: as §1

Proteus mirabilis 889 = experiment: Antibacterial effectiveness in agar; details: Proteus mirabilis, 889
Source text: as §1

Proteus mirabilis T318 = experiment: Antibacterial effectiveness in agar; details: Proteus mirabilis, T318
Source text: as §1

[3] = tested on: Staphylococcus aureus ATCC 25923; experiment: Antibacterial effectiveness in agar; details: Staphylococcus aureus, ATCC25923
Source text: as §1

[4] = tested on: Bacteroides fragilis VP1 8249; experiment: Antibacterial effectiveness in agar; details: Bacteroides fragilis, VP18249
Source text: as §1

[5] = tested on: Serratia marcescens Wo146; experiment: Antibacterial effectiveness in agar; details: Serratia marcescens, WO146
Source text: as §1

[6] = tested on: Pseudomonas aeruginosa W975; experiment: Antibacterial effectiveness in agar; details: Pseudomonas aeruginosa, W975
Source text: as §1

[7] = tested on: Bacteroides fragilis WS12; experiment: Antibacterial effectiveness in agar; details: Bacteroides fragilis, WS12
Source text: as §1

Escherichia coli JT425C+ = experiment: Antibacterial effectiveness in agar; details: Escherichia coli
Source text: as §1

Escherichia coli JT4R+ = experiment: Antibacterial effectiveness in agar
Source text: as §1

Proteus vulgaris X = experiment: Antibacterial effectiveness in agar; details: Proteus vulgaris
Source text: as §1

Bacteroides fragilis B3 = experiment: Antibacterial effectiveness in agar; details: Bacteroides fragilis, B3
Source text: as §1

Escherichia coli JT20R+ = experiment: Antibacterial effectiveness in agar
Source text: as §1

[8] = tested on: Escherichia coli NCTC 15418; experiment: Antibacterial effectiveness in agar; details: Escherichia coli, NCTC15418
Source text: as §1

[9] = tested on: Staphylococcus aureus T150+; experiment: Antibacterial effectiveness in agar; details: Staphylococcus aureus
Source text: as §1

[10] = tested on: Proteus vulgaris NCTC 4395; experiment: Antibacterial effectiveness in agar; details: Proteus vulgaris, NCTC4395
Source text: as §1

Proteus rettgeri I = experiment: Antibacterial effectiveness in agar; details: Providencia rettgeri
Source text: as §1

[11] = tested on: Bacteroides fragilis BC16; experiment: Antibacterial effectiveness in agar; details: Bacteroides fragilis, BC16
Source text: as §1

[12] = tested on: Bacteroides fragilis WS41; experiment: Antibacterial effectiveness in agar; details: Bacteroides fragilis, WS41
Source text: as §1

[13] = tested on: Enterobacter cloacea T749; experiment: Antibacterial effectiveness in agar; details: Enterobacter, T749
Source text: as §1

Citrobacter freundii W18 = experiment: Antibacterial effectiveness in agar; details: Citrobacter freundii, W18
Source text: as §1

[14] = tested on: Pseudomonas aeruginosa Dalgleish; experiment: Antibacterial effectiveness in agar; details: Pseudomonas aeruginosa
Source text: as §1

[15] = tested on: Klebsiella aerogenes I281; experiment: Antibacterial effectiveness in agar; details: Klebsiella aerogenes, I281
Source text: as §1

[16] = tested on: Streptococcus faecalis T1101; experiment: Antibacterial effectiveness in agar; details: Enterococcus faecalis, T1101
Source text: as §1

Proteus morganii I = experiment: Antibacterial effectiveness in agar; details: Morganella morganii
Source text: as §1

[17] = tested on: Pseudomonas aeruginosa NCTC 10662; experiment: Antibacterial effectiveness in agar; details: Pseudomonas aeruginosa, NCTC10662
Source text: as §1

[18] = tested on: Citrobacter freundii T221; experiment: Antibacterial effectiveness in agar; details: Citrobacter freundii, T221
Source text: as §1

Escherichia coli JT1 = experiment: Antibacterial effectiveness in agar; details: Escherichia coli, JT1
Source text: as §1

Escherichia coli 5 = experiment: Antibacterial effectiveness in agar; details: Escherichia coli, 5
Source text: as §1

[19] = tested on: Klebsiella aerogenes Va2R+; experiment: Antibacterial effectiveness in agar; details: Klebsiella aerogenes
Source text: as §1

Bacteroides fragilis BC4 = experiment: Antibacterial effectiveness in agar; details: Bacteroides fragilis, BC4
Source text: as §1

Serratia marcescens SM27 = experiment: Antibacterial effectiveness in agar; details: Serratia marcescens, SM27
Source text: as §1

[20] = tested on: Staphylococcus aureus T67+; experiment: Antibacterial effectiveness in agar; details: Staphylococcus aureus
Source text: as §1

Escherichia coli JT414C+ = experiment: Antibacterial effectiveness in agar; details: Escherichia coli
Source text: as §1

[21] = tested on: Enterobacter cloacea NCTC 10005; experiment: Antibacterial effectiveness in agar; details: Enterobacter, NCTC10005
Source text: as §1

Escherichia coli Ba78R+ = experiment: Antibacterial effectiveness in agar; details: Escherichia coli
Source text: as §1

[22] = tested on: Staphylococcus aureus Smith; experiment: Antibacterial effectiveness in agar; details: Staphylococcus aureus
Source text: as §1

[23] = tested on: Enterbacter aerogenes T660; experiment: Antibacterial effectiveness in agar
Source text: as §1

[24] = tested on: Enterbacter aerogenes NCTC 10006; experiment: Antibacterial effectiveness in agar
Source text: as §1

[25] = tested on: Staphylococcus aureus ME9+; experiment: Antibacterial effectiveness in agar; details: Staphylococcus aureus
Source text: as §1

Proteus morganii T361 = experiment: Antibacterial effectiveness in agar; details: Morganella morganii, T361
Source text: as §1

[26] = tested on: Streptococcus faecalis C90; experiment: Antibacterial effectiveness in agar; details: Enterococcus faecalis, C90
Source text: as §1

[27] = tested on: Klebsiella aerogenes R112; experiment: Antibacterial effectiveness in agar; details: Klebsiella aerogenes, R112
Source text: as §1

Escherichia coli E96R+ = experiment: Antibacterial effectiveness in agar
Source text: as §1

Bacteroides fragilis WS1 = experiment: Antibacterial effectiveness in agar; details: Bacteroides fragilis, WS1
Source text: as §1

[28] = tested on: Staphylococcus aureus Oxford; experiment: MIC in agar; details: in agar; Staphylococcus aureus Oxford; read-out: M.I.C.
Source text: (§2) a. Antibacterial effectiveness of compounds of
(§3) Examples 6 and 7 in agar.
(§4) (μg/ml) in agar of compound

Klebsiella aerogenes A = experiment: MIC in agar; details: in agar; Klebsiella aerogenes A; read-out: M.I.C.
Source text: as §2, §3, §4

Serratia marcescens US20 = experiment: MIC in agar; details: in agar; Serratia marcescens US20; read-out: M.I.C.
Source text: as §2, §3, §4

Citrobacter freundii E8 = experiment: MIC in agar; details: in agar; Citrobacter freundii E8; read-out: M.I.C.
Source text: as §2, §3, §4

[29] = tested on: Streptococcus pneumoniae CN33; experiment: MIC in agar
Source text: as §2, §3, §4

[30] = tested on: Staphylococcus aureus Russell; experiment: MIC in agar; details: in agar; Staphylococcus aureus Russell; read-out: M.I.C.
Source text: as §2, §3, §4

Enterobacter cloacae N1 = experiment: MIC in agar; details: in agar; Enterobacter cloacae N1; read-out: M.I.C.
Source text: as §2, §3, §4

[31] = tested on: Staphylococcus aureus 1517; experiment: MIC in agar; details: in agar; Staphylococcus aureus 1517; read-out: M.I.C.
Source text: as §2, §3, §4

Escherichia coli JT39 = experiment: MIC in agar; details: in agar; Escherichia coli JT39; read-out: M.I.C.
Source text: as §2, §3, §4

Proteus vulgaris W091 = experiment: MIC in agar; details: in agar; Proteus vulgaris W091; read-out: M.I.C.
Source text: as §2, §3, §4

Proteus morganii 1580 = experiment: MIC in agar; details: Morganella morganii; in agar; Proteus morganii 1580; read-out: M.I.C.
Source text: as §2, §3, §4

Pseudomonas aeruginosa A = experiment: MIC in agar; details: in agar; Pseudomonas aeruginosa A; read-out: M.I.C.
Source text: as §2, §3, §4

[32] = tested on: Streptococcus pyogenes CN10; experiment: MIC in agar; details: in agar; Streptococcus pyogenes CN10; read-out: M.I.C.
Source text: as §2, §3, §4

Shigella sonnei MB 11967 = experiment: MIC in agar; details: MB11967
Source text: as §2, §3, §4

Bacillus subtilis A = experiment: MIC in agar; details: in agar; Bacillus subtilis A; read-out: M.I.C.
Source text: as §2, §3, §4

Escherichia coli 0111 = experiment: MIC in agar
Source text: as §2, §3, §4

[33] = tested on: Salmonella typhimurium CT10; experiment: MIC in agar; details: Salmonella enterica; in agar; Salmonella typhimurium CT10; read-out: M.I.C.
Source text: as §2, §3, §4

Proteus mirabilis C977 = experiment: MIC in agar; details: in agar; Proteus mirabilis C977; read-out: M.I.C.
Source text: as §2, §3, §4

Proteus rettgeri WM16 = experiment: MIC in agar; details: Providencia rettgeri; in agar; Proteus rettgeri WM16; read-out: M.I.C.
Source text: as §2, §3, §4

Streptococcus faecalis I = experiment: MIC in agar; details: Enterococcus faecalis; in agar; Streptococcus faecalis I; read-out: M.I.C.
Source text: as §2, §3, §4

E. coli ESS = experiment: MIC in agar; details: Escherichia coli
Source text: | (μg/ml) in agar of compound

Work on CCSC1=C(C(=O)[O-])N2C(=O)[C@@H]([C@H](C)OS(=O)(=O)[O-])[C@H]2C1.[Na+].[Na+] [Example 14, Disodium (5R,6R)-3-ethylthio-6-[(S)-1-sulphonato-oxyethyl]-7-oxo-1-azabicyclo[3.2.0]hept-2-ene-2-carboxylate] yielded an MIC [1] of no more than 0.1 µg/mL, an MIC [2] of 0.2 µg/mL and an MIC (Proteus rettgeri R110) of 0.2 µg/mL. For the same molecule, the MIC (Escherichia coli E8) was no more than 0.1 µg/mL, the MIC (Proteus mirabilis 889) was 0.8 µg/mL and the MIC (Proteus mirabilis T318) was 0.4 µg/mL. For the same molecule, the MIC [3] was 0.4 µg/mL, the MIC [4] was 0.4 µg/mL and the MIC [5] was 1.6 µg/mL. For the same molecule, the MIC [6] was 100 µg/mL, the MIC [7] was 0.2 µg/mL and the MIC (Escherichia coli JT425C+) was no more than 0.1 µg/mL. The MIC (Escherichia coli JT4R+) was 0.4 µg/mL, the MIC (Proteus vulgaris X) was 0.4 µg/mL and the MIC (Bacteroides fragilis B3) was 0.4 µg/mL. The MIC (Escherichia coli JT20R+) was 0.8 µg/mL, the MIC [8] was no more than 0.1 µg/mL and the MIC [9] was 0.4 µg/mL. The MIC [10] was 0.2 µg/mL, the MIC (Proteus rettgeri I) was 0.4 µg/mL and the MIC [11] was 1.6 µg/mL. For the same molecule, the MIC [12] was 0.2 µg/mL, the MIC [13] was 6.2 µg/mL and the MIC (Citrobacter freundii W18) was 1.6 µg/mL. It also gave an MIC [14] of 50 µg/mL, an MIC [15] of no more than 0.1 µg/mL and an MIC [16] of 12.5 µg/mL. For the same molecule, the MIC (Proteus morganii I) was 0.4 µg/mL, the MIC [17] was 50 µg/mL and the MIC [18] was 1.6 µg/mL. It also gave an MIC (Escherichia coli JT1) of no more than 0.1 µg/mL, an MIC (Escherichia coli 5) of no more than 0.1 µg/mL and an MIC [19] of 0.8 µg/mL. The MIC (Bacteroides fragilis BC4) was 0.8 µg/mL, the MIC (Serratia marcescens SM27) was 0.4 µg/mL and the MIC [20] was 0.8 µg/mL. It also gave an MIC (Escherichia coli JT414C+) of 0.2 µg/mL, an MIC [21] of 6.2 µg/mL and an MIC (Escherichia coli Ba78R+) of 0.2 µg/mL. It also gave an MIC [22] of 0.4 µg/mL, an MIC [23] of 0.2 µg/mL and an MIC [24] of 0.4 µg/mL. The MIC [25] was 1.6 µg/mL, the MIC (Proteus morganii T361) was 0.4 µg/mL and the MIC [26] was 12.5 µg/mL. For the same molecule, the MIC [27] was no more than 0.1 µg/mL, the MIC (Escherichia coli E96R+) was no more than 0.1 µg/mL and the MIC (Bacteroides fragilis WS1) was 6.2 µg/mL.
Molecule C[C@H](O)[C@@H]1C(=O)N2C(C(=O)O)=C(S/C=C\C(=O)O)C[C@H]12 [Example 24, The Disodium salt of (5R,6R)-3-[(Z)-2-carboxyethenylthio]-6-[(S)-1-hydroxyethyl]-7-oxo-1-azabicyclo[3.2.0]hept-2-ene-2-carboxylic acid] has an MIC [28] of 0.5 µg/mL, an MIC (Klebsiella aerogenes A) of 0.2 µg/mL and an MIC (Serratia marcescens US20) of 2.5 µg/mL. The MIC (Citrobacter freundii E8) was 1.2 µg/mL, the MIC [29] was no more than 0.1 µg/mL and the MIC [30] was 0.5 µg/mL. It also gave an MIC (Enterobacter cloacae N1) of 0.5 µg/mL, an MIC [31] of 5 µg/mL and an MIC (Escherichia coli JT39) of 5 µg/mL. The MIC (Proteus vulgaris W091) was 0.5 µg/mL, the MIC (Proteus morganii 1580) was 0.5 µg/mL and the MIC (Pseudomonas aeruginosa A) was greater than 50 µg/mL. For the same molecule, the MIC [32] was no more than 0.1 µg/mL, the MIC (Shigella sonnei MB 11967) was 0.5 µg/mL and the MIC (Bacillus subtilis A) was no more than 0.1 µg/mL. For the same molecule, the MIC (Escherichia coli 0111) was 0.2 µg/mL, the MIC [33] was 0.5 µg/mL and the MIC (Proteus mirabilis C977) was 0.5 µg/mL. The MIC (Proteus rettgeri WM16) was 0.5 µg/mL, the MIC (Streptococcus faecalis I) was 2.5 µg/mL and the MIC (E. coli ESS) was no more than 0.1 µg/mL.
